This is an account of results in PubChem BioAssay AID1259408 (Genetic Toxicology Data Bank (GENE-TOX), 2018).

Calls of active or inactive are those of the source. No rule for the calls is given here.

The data set concerns GENE-TOX genotoxicity assays, various organisms and cells. In words: GENE-TOX mutagenicity studies. Particulars: for call: Assay Type: In vivo carcinogenicity studies, Assay Code: CCG+.
The mark [1] stands for this setting: Species/Cell Type: Nonhuman, Evaluation Type: Evaluation A (Pre-1980).
Setting [2] is: Species/Cell Type: Vicia faba, Assay Type: Chromosome aberrations, Assay Code: VIC+D, Dose Response: With dose response, Evaluation Type: Evaluation A (Pre-1980).

In the case of `C1OC1C1CO1` (stereo not drawn), the mutagenic call runs as follows: (Species/Cell Type: Aspergillus nidulans, Assay Type: Forward gene mutation, Assay Code: ASF+, Evaluation Type: Evaluation A (Pre-1980)) “active; positive”; (Species/Cell Type: Aspergillus nidulans, Assay Type: Mitotic recombination, Assay Code: ASG+, Evaluation Type: Evaluation A (Pre-1980)) “active; positive”; (Species/Cell Type: Drosophila melanogaster, Assay Type: Sex-linked recessive lethal gene mutation, Assay Code: SRL+, Evaluation Type: Evaluation A (Pre-1980)) “active; positive”; (Species/Cell Type: Drosophila melanogaster, Sex: Male, Assay Type: Heritable translocation test, chromosome aberrations, Assay Code: DHT+, Evaluation Type: Evaluation A (Pre-1980)) “active; positive”; (Species/Cell Type: Escherichia coli polA (W3119 vs P3478), Assay Type: Rec-assay, DNA effects (bacterial DNA repair), Assay Code: RE1+, Evaluation Type: Evaluation A (Pre-1980)) “active; positive”; (Species/Cell Type: Fischer rat embryo (RLV/1706) cells, Assay Type: Cell transformation, viral enhanced, Assay Code: CTR+, Evaluation Type: Evaluation A (Pre-1980)) “active; positive”. The mutagenic call runs as follows: (Species/Cell Type: Glycine max (soybean), Assay Type: Gene mutation, Assay Code: GLM+, Evaluation Type: Evaluation A (Pre-1980)) “active; positive”; (Species/Cell Type: Hordeum vulgare (barley), Assay Type: Chromosome aberrations, Assay Code: HOC+, Evaluation Type: Evaluation A (Pre-1980)) “active; positive”; (Species/Cell Type: Human lymphocytes, Assay Type: Sister-chromatid exchange (SCE) in vitro, Assay Code: SCL+D, Dose Response: With dose response, Evaluation Type: Evaluation B (Post-1980)) “active; positive”; (Species/Cell Type: Human, Assay Type: Sister-chromatid exchange (SCE) in vitro, Assay Code: SC1+D, Dose Response: With dose response, Evaluation Type: Evaluation B (Post-1980)) “active; positive”; (Species/Cell Type: Mouse (BALB/c-3T3) cells, Assay Type: Cell transformation, Assay Code: CTB+D, Dose Response: With dose response, Evaluation Type: Evaluation A (Pre-1980)) “active; positive”; (Species/Cell Type: Neurospora crassa, Assay Type: Forward gene mutation, Assay Code: NEF+, Evaluation Type: Evaluation A (Pre-1980)) “active; positive”. Further, the mutagenic call is, setting by setting: (Species/Cell Type: Neurospora crassa, Assay Type: Reverse gene mutation, Assay Code: NER+, Evaluation Type: Evaluation A (Pre-1980)) “active; positive”; (Species/Cell Type: Nonhuman, Assay Type: Sister-chromatid exchange (SCE) in vitro, Assay Code: SC2+D, Dose Response: With dose response, Evaluation Type: Evaluation A (Pre-1980)) “active; positive”; (Species/Cell Type: Nonhuman, Assay Type: Sister-chromatid exchange (SCE) in vivo, Assay Code: SC3+D, Dose Response: With dose response, Evaluation Type: Evaluation B (Post-1980)) “active; positive”; (Species/Cell Type: Saccharomyces cerevisiae, Assay Type: Mitotic recombination or gene conversion, Assay Code: YEC+, Evaluation Type: Evaluation A (Pre-1980)) “active; positive”; (Species/Cell Type: Saccharomyces cerevisiae, Assay Type: Mitotic recombination or gene conversion, Assay Code: YEH+, Evaluation Type: Evaluation A (Pre-1980)) “active; positive”; (Species/Cell Type: Saccharomyces cerevisiae, Assay Type: Reverse gene mutation, Assay Code: YER+, Evaluation Type: Evaluation A (Pre-1980)) “active; positive”. Further, the mutagenic call by setting is: (Species/Cell Type: Salmonella typhimurium (one or more of the five standard strains: TA98, TA100, TA1535, TA1537, and TA1538), Assay Type: Histidine reverse gene mutation, Ames assay, Assay Code: SAL+, Evaluation Type: Evaluation A (Pre-1980)) “active; positive”; (Species/Cell Type: Salmonella typhimurium, Assay Type: Forward and reverse gene mutation, host-mediated assay, Assay Code: HMA+, Evaluation Type: Evaluation A (Pre-1980)) “active; positive”; (Species/Cell Type: Schizosaccharomyces pombe, Assay Type: Reverse gene mutation, Assay Code: YEZ+, Evaluation Type: Evaluation A (Pre-1980)) “active; positive”; (Species/Cell Type: Syrian hamster embryo (SHE) cells, Assay Type: Cell transformation, clonal assay, Assay Code: CTC+D, Dose Response: With dose response, Evaluation Type: Evaluation A (Pre-1980)) “active; positive”; under setting [2], “active; positive”. Under setting [1], the call is “active; positive”.
Turning to `CN(C)Cc1cc(Br)ccc1OCC(=O)N/N=C/c1ccccc1O`, for the setting “Species/Cell Type: Saccharomyces cerevisiae, Assay Type: Reverse gene mutation, Assay Code: YERT, Evaluation Type: Evaluation A (Pre-1980)”, the mutagenic call was “no conclusion”.
Regarding `O=S(=O)(c1ccc(Cl)cc1)c1cc(Cl)c(Cl)cc1Cl`, the mutagenic call under setting [2] was “active; positive”.
As for `[O-]/[N+](=N\O)c1ccccc1`, the call under setting [1] was “active; positive”. In addition, the mutagenic call (Species/Cell Type: Vicia faba, Assay Type: Chromosome aberrations, Assay Code: VIC+, Evaluation Type: Evaluation A (Pre-1980)) is “active; positive”.
